Experimental data published in the supplement of paper PMC5908809.

Tests used:
[1] = system: normal primary NK cells, pool 1 (3 donors) (IL-2 2.5 ng/mL); experiment: drug sensitivity score (DSS) (DSS units); higher = more sensitive; extreme values may be limits of the assay; settings: 72 h
[2] = system: NK-YS (IL-2 2.5 ng/mL); experiment: as above; settings: 72 h
[3] = system: SNK-6 (IL-2 2.5 ng/mL); experiment: as above; settings: 72 h
[4] = system: NKL (IL-2 2.5 ng/mL); experiment: as above; settings: 72 h
[5] = system: normal primary NK cells, pool 3 (3 donors) (IL-2 2.5 ng/mL); experiment: as above; settings: 72 h
[6] = system: normal primary NK cells, pool 1 (3 donors), resting (IL-2 0 ng/mL); experiment: as above; settings: 72 h
[7] = system: KAI3 (IL-2 2.5 ng/mL); experiment: as above; settings: 72 h
[8] = system: normal primary NK cells, pool 2 (3 donors) (IL-2 2.5 ng/mL); experiment: as above; settings: 72 h
[9] = system: IMC-1 (IL-2 20 ng/mL); experiment: as above; settings: 72 h
[10] = system: KHYG-1 (IL-2 2.5 ng/mL); experiment: as above; settings: 72 h
[11] = system: DERL-7 (IL-2 2.5 ng/mL); experiment: as above; settings: 72 h
[12] = system: YT (IL-2 2.5 ng/mL); experiment: as above; settings: 72 h
[13] = system: NK-92 (IL-2 2.5 ng/mL); experiment: as above; settings: 72 h
[14] = system: normal NK cells expanded with K562-aAPC; experiment: as above; settings: 72 h; IL-2 2.5 ng/mL
Protocol: (§1)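 Drug sensitivity and resistance testing on K562-aAPC-expanded normal NK cells: 5 concentrations (10-fold steps over a 10,000-fold range), 72 h at 37 °C, viability by CellTiter-Glo normalised to DMSO and benzethonium chloride controls; DSS from the fitted curve.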

[15] = system: normal NK cells expanded with K562-aAPC; experiment: percent inhibition of viability; higher = more inhibition; settings: 72 h, IL-2 2.5 ng/mL
Protocol: as §1

[16] = system: normal primary NK cells, pool 1 (3 donors) (IL-2 2.5 ng/mL); experiment: as above; settings: 72 h
[17] = system: NK-YS (IL-2 2.5 ng/mL); experiment: as above; settings: 72 h
[18] = system: SNK-6 (IL-2 2.5 ng/mL); experiment: as above; settings: 72 h
[19] = system: NKL (IL-2 2.5 ng/mL); experiment: as above; settings: 72 h
[20] = system: normal primary NK cells, pool 3 (3 donors) (IL-2 2.5 ng/mL); experiment: as above; settings: 72 h
[21] = system: normal primary NK cells, pool 1 (3 donors), resting (IL-2 0 ng/mL); experiment: as above; settings: 72 h
[22] = system: KAI3 (IL-2 2.5 ng/mL); experiment: as above; settings: 72 h
[23] = system: normal primary NK cells, pool 2 (3 donors) (IL-2 2.5 ng/mL); experiment: as above; settings: 72 h
[24] = system: IMC-1 (IL-2 20 ng/mL); experiment: as above; settings: 72 h
[25] = system: KHYG-1 (IL-2 2.5 ng/mL); experiment: as above; settings: 72 h
[26] = system: DERL-7 (IL-2 2.5 ng/mL); experiment: as above; settings: 72 h
[27] = system: YT (IL-2 2.5 ng/mL); experiment: as above; settings: 72 h
[28] = system: NK-92 (IL-2 2.5 ng/mL); experiment: as above; settings: 72 h

C[C@@H]1C=C2C(=O)O[C@@H]3CC[C@H](C1)[C@]23O [Galiellalactone] (max concentration tested 25000 nM)
Settings | drug sensitivity score
[1] | 7.72
[2] | 6.25
[3] | 7.97
[4] | 2.18
[5] | 5.23
[6] | 8.44
[7] | 9.99
[8] | 6.94
[9] | 1.6
[10] | 6.22
[11] | 10.3
[12] | 4.18
[13] | 7.95
[14] | 6.5

percent inhibition of viability [%]
Settings | 2.5 nM | 25 nM | 250 nM | 2500 nM | 25000 nM
[15] | -7.73 | -4.65 | -5.56 | 8.69 | 91.9
[16] | -8.48 | 6.95 | 7.01 | 15.2 | 93.7
[17] | 0.84 | -3.46 | 3.95 | 18.4 | 64.7
[18] | -13.8 | -22 | -28.1 | 20.7 | 86
[19] | -8.21 | -5.52 | -6.69 | -5.94 | 49.3
[20] | -11.4 | 1.14 | -3.83 | 2.67 | 87.7
[21] | -12.7 | 5.72 | 9.42 | 27.4 | 89.3
[22] | 0.86 | -9.38 | 4.52 | 34.1 | 99.1
[23] | -9.13 | 7.06 | 4.86 | 10.7 | 93.2
[24] | -4.12 | -5.59 | -4.92 | -11.8 | 42.7
[25] | -7.95 | -9.83 | -6.41 | 10.7 | 80.1
[26] | -3.32 | -2.23 | 6.78 | 39.3 | 101
[27] | -7.44 | -15.7 | -6.7 | -3.78 | 81
[28] | -18 | -14.4 | -12.5 | 13.8 | 106

COc1cc2c(Nc3ccc(Cl)c(Cl)c3F)ncnc2cc1OC[C@@H]1C[C@@H]2CN(C)C[C@@H]2C1 [XL-647] (max concentration tested 1000 nM)
Settings | drug sensitivity score
[1] | 3.29
[2] | 2.37
[3] | 0
[4] | 5.6
[5] | 0.47
[6] | 5.88
[7] | 4.2
[8] | 1.68
[9] | 0
[10] | 0.5
[11] | 3.48
[12] | 1.99
[13] | 4.71
[14] | 3.02

percent inhibition of viability [%]
Settings | 0.1 nM | 1 nM | 10 nM | 100 nM | 1000 nM
[15] | -7 | -6.81 | -2.66 | 7.59 | 37.1
[16] | 0.18 | 15.8 | 5.17 | 13.4 | 36.7
[17] | -8.01 | -7.74 | -6.62 | 1.82 | 42.2
[18] | 17.2 | -16.8 | -17.2 | -22.1 | 3.73
[19] | -12.1 | -2.96 | 0.78 | 18.2 | 55.1
[20] | -9.94 | 18.6 | 6.02 | -4.74 | 21.1
[21] | -0.45 | 21.2 | 8.11 | 17.6 | 64.4
[22] | -2.77 | -5.01 | 0.66 | 13.1 | 44
[23] | -4.62 | 6.47 | 1.95 | -3.8 | 39.6
[24] | -7 | -0.32 | 0.43 | -6.58 | 6.29
[25] | -6.79 | -7.9 | -4.38 | -1 | 19.7
[26] | 2.38 | 4.2 | 2.43 | 5.16 | 49.9
[27] | -6.35 | -3.87 | -2.73 | 5.21 | 28.1
[28] | 2.48 | -1.64 | 0.32 | 10.1 | 56.2
